Reference: ChEMBL document CHEMBL5050844 (2019)

Tests used:
Assay type in all cases: functional, T cell line
[1] = Induction of anti-CD3/CD28 antibodies-stimulated human T cell activation at 0.3 uM assessed fold increase in IL-2 secretion measured by ELISA assay
[2] = Induction of anti-CD3 antibodies-stimulated human T cell activation at 1 uM assessed fold increase in IL-2 secretion measured by ELISA assay
[3] = Induction of anti-CD3 antibodies-stimulated human T cell activation at 8 uM assessed fold increase in IL-2 secretion measured by ELISA assay
[4] = Induction of anti-CD3/CD28 antibodies-stimulated human T cell activation at 4 uM assessed fold increase in IL-2 secretion measured by ELISA assay
[5] = Induction of anti-CD3/CD28 antibodies-stimulated human T cell activation at 1 uM assessed fold increase in IL-2 secretion measured by ELISA assay
[6] = Induction of anti-CD3/CD28 antibodies-stimulated human T cell activation at 1 uM assessed fold increase in CD25 expression measured by ELISA assay
[7] = Induction of anti-CD3/CD28 antibodies-stimulated human T cell activation at 0.3 uM assessed fold increase in CD25 expression measured by ELISA assay
[8] = Induction of anti-CD3 antibodies-stimulated human T cell activation at 1 uM assessed fold increase in CD25 expression measured by ELISA assay
[9] = Induction of anti-CD3/CD28 antibodies-stimulated human T cell activation at 4 uM assessed fold increase in CD25 expression measured by ELISA assay
[10] = Induction of anti-CD3 antibodies-stimulated human T cell activation at 8 uM assessed fold increase in CD25 expression measured by ELISA assay

Row | SMILES | fold change (FC) [1] | fold change (FC) [2] | fold change (FC) [3] | fold change (FC) [4] | fold change (FC) [5] | fold change (FC) [6] | fold change (FC) [7] | fold change (FC) [8] | fold change (FC) [9] | fold change (FC) [10]
1 | C[C@H](Sc1nncn1C)c1cccc(NC(=O)c2cc(C(=O)N3CC(O)C3)ccn2)c1 | <=1 | <=0.05 | <=0.05 | <=1 | <=1 | <=1 | <=1 | <=0.6 | <=1 | 0.601
2 | C[C@H](Cc1nnc[nH]1)c1cccc(N2Cc3c(cccc3C(F)(F)F)C2=O)c1 | <=1 | <=0.05 | <=0.05 | 1.01 | <=1 | 1.31 | 1.01 | <=0.6 | 1.31 | <=0.6
3 | C[C@H](Sc1nnc[nH]1)c1cccc(NC(=O)c2cc3ccccc3cn2)c1 | 1.01 | 0.051 | 0.051 | 1.01 | 1.01 | <=1 | <=1 | <=0.6 | <=1 | <=0.6
4 | Cc1ncc(C(=O)Nc2cccc([C@H](C)Sc3nncn3C)c2)nc1C1CC1 | <=1 | <=0.05 | 0.051 | 2.51 | 1.01 | 1.31 | 1.31 | 0.801 | 1.51 | 0.801
5 | C[C@H](Cc1nncn1C)c1cccc(NC(=O)c2cnn3cccnc23)c1 | 1.01 | 0.051 | 0.051 | 1.01 | 1.01 | <=1 | <=1 | 0.601 | 1.01 | 0.601
6 | COc1cccc(C(=O)Nc2cccc([C@H](C)Sc3nncn3C)c2)n1 | 1.01 | 0.101 | 0.151 | 2.51 | 1.01 | <=1 | <=1 | <=0.6 | 1.31 | 0.601
7 | C[C@H](Sc1nncn1C)c1cccc(NC(=O)c2ccc(Cl)c(C(F)(F)F)n2)c1 | <=1 | <=0.05 | <=0.05 | 1.01 | <=1 | 1.01 | 1.01 | 0.801 | 1.01 | >=1.001
8 | C[C@H](Sc1nncn1C)c1ccnc(NC(=O)c2cc(C3CC3)cc(C(F)(F)F)n2)c1 | 1.01 | <=0.05 | <=0.05 | 1.01 | 1.01 | <=1 | <=1 | 0.601 | 1.01 | 0.801
9 | C[C@H](Sc1nncn1C)c1cccc(NC(=O)c2cc3cc(OCc4ccn[nH]4)ccc3cn2)c1 | 1.01 | 0.051 | 0.101 | 2.51 | 1.01 | <=1 | <=1 | <=0.6 | 1.01 | <=0.6
10 | C[C@H](Cc1nncn1C)c1cccc(N2Cc3c(ccnc3C3CCC3)C2=O)c1 | 1.01 | 0.051 | 0.101 | 5 | 2.51 | 1.01 | <=1 | >=1.001 | 1.01 | >=1.001
11 | C[C@@H](Cc1nncn1C)c1cccc(NC(=O)c2cc(C3CC3)cc(C(F)(F)F)n2)c1 | 1.01 | 0.051 | 0.101 | 1.01 | 1.01 | 1.01 | 1.01 | 0.601 | 1.01 | 0.601
12 | C[C@H](Cc1nncn1C)c1cccc(NC(=O)c2cccc(S(C)(=O)=O)n2)c1 | 1.01 | 0.051 | 0.051 | 2.51 | 1.01 | >=1.76 | 1.01 | <=0.6 | >=1.76 | <=0.6
13 | Cc1ccc(C(=O)Nc2cc([C@H](C)Sc3nncn3C)ccn2)nc1C1CC1 | 2.51 | <=0.05 | <=0.05 | 5 | 2.51 | <=1 | <=1 | <=0.6 | 1.01 | <=0.6
14 | C[C@@H](c1cccc(N2Cc3c(cccc3C(F)(F)F)C2=O)c1)[C@H](F)c1nncn1C (racemic) | 1.01 | 0.051 | 0.151 | 2.51 | 1.01 | 1.01 | 1.01 | 0.601 | 1.01 | >=1.001
15 | C[C@H](Sc1nncn1C)c1cccc(NC(=O)c2cccc(C(C)(F)F)n2)c1 | <=1 | <=0.05 | 0.151 | 2.51 | <=1 | 1.51 | 1.01 | 0.801 | >=1.76 | >=1.001
16 | C[C@H](Sc1nncn1C)c1cccc(NC(=O)c2cc(C(F)(F)F)ccn2)c1 | <=1 | <=0.05 | 0.101 | 1.01 | 1.01 | 1.01 | 1.01 | 0.601 | 1.01 | >=1.001
17 | C[C@H](Cc1nncn1C)c1cccc(NC(=O)c2cc(C(C)(C)O)cc(C(F)(F)F)n2)c1 | 1.01 | 0.101 | >=0.201 | 5 | 2.51 | 1.01 | 1.01 | 0.801 | 1.01 | >=1.001
18 | C[C@H](Sc1nncn1C)c1ccnc(NC(=O)c2cc3c(C(F)(F)F)cccc3[nH]2)c1 | 1.01 | <=0.05 | <=0.05 | 1.01 | 1.01 | <=1 | <=1 | <=0.6 | <=1 | <=0.6
19 | C[C@H](Sc1nncn1C)c1cccc(NC(=O)c2cc(Cl)cc(C(F)(F)F)n2)c1 | 1.01 | <=0.05 | 0.051 | 1.01 | 1.01 | 1.01 | 1.01 | 0.601 | 1.01 | 0.801
20 | Cn1cnnc1[C@H](F)[C@@](C)(F)c1cccc(N2Cc3c(cc(C4CC4)cc3C(F)(F)F)C2=O)c1 (single isomer, unassigned; 483) | <=1 | 0.051 | 0.051 | 1.01 | 1.01 | 1.01 | 1.01 | 0.601 | 1.01 | 0.801
21 | Cn1cnnc1C[C@](C)(F)c1cccc(N2Cc3c(cccc3C(F)(F)F)C2=O)c1 | 1.01 | 0.051 | 0.101 | 1.01 | 1.01 | <=1 | 1.01 | 0.601 | 1.01 | 0.801
22 | C[C@H](Sc1nncn1C)c1cccc(NC(=O)c2cc(C(C)(C)O)c(Cl)cn2)c1 | 1.01 | <=0.05 | <=0.05 | 1.01 | 1.01 | 1.01 | 1.01 | <=0.6 | 1.01 | 0.601
